Results on 86 compounds are retold here after a melting point compilation (Tetko et al.; mined from patent text by program, amines drawn as free bases though some values may be those of a salt).

As to `O=C(NCc1ccc(C=NNO)cc1)C1Cc2ccccc2N1S(=O)(=O)c1ccc(-c2cccc(C(F)(F)F)c2)cc1` (stereo unspecified), the melting point lay in the range of 110 to 115 °C.

Compound `CN(C)C(=O)NC1CCC(=O)c2ccccc21` (stereo unspecified) displayed a melting point of 157 to 162 °C. In the case of `Cc1ccc(-c2ccc(C=Cc3ccc(Cl)cc3)s2)s1`, the melting point lay within 157 to 162 °C. Regarding `O=C(O)CC(CCc1ccc(O)cc1)CC(=O)O`, the melting point was in the range of 142 to 144 °C.

`O=C(Nc1n[nH]c(=S)s1)NC(Cc1ccccc1)C(=O)NCCCc1ccccc1` (stereo unspecified) returned a melting point of 190 to 191 °C. With `COc1ccc2cc(-c3nc(-c4ccncc4)no3)c(=O)oc2c1`, the melting point is 300 °C. As for `O=C(O)C(O)c1ccc2nc(-c3ccc(Cl)cc3)oc2c1` (stereo unspecified), the melting point fell in the range of 222 to 224 °C. The value for `CN1CC2c3ccc(C=O)n3Cc3ccccc3N2C(=O)C1=O` (stereo unspecified) was 300 to 302 °C; that for `COc1ccc2c(=O)n(S(=O)(=O)c3ccc(Cl)cc3)c(=O)[nH]c2c1` was 205 to 206 °C.

`COc1ccc(C#N)c2c1OC1(COCC1OC)C2` (stereo unspecified): the melting point is 151 to 156 °C.

Turning to `C=C(C)SC1C(NC(=O)COc2ccccc2)C(=O)N1C=O` (stereo unspecified), the melting point was 156 to 158 °C. Consider `CSCc1cc(C(F)(F)F)ccc1N`, for which the melting point was 65.5 to 67.5 °C. Compound `Nc1ccc2c(c1)C(=O)N(CCO)C2=O` yielded a melting point of 171 to 173 °C.

`CCOC(=O)C(Cl)=Cc1cc(NC(=O)CC(C)CC(=O)O)ccc1Cl` (stereo unspecified) showed a melting point of 82 to 84 °C. The value for `CN(c1nc(-c2cc3ccccc3[nH]c2=O)cs1)S(=O)(=O)c1ccccc1` was 242 to 244 °C.

Take `CCOC(=O)c1cc(O)c2nc(C3CC3)n(C)c2c1`: the melting point was 201 to 202 °C. On to `C[Si](C)(C)c1ccc2cc(C(=O)O)n(Cc3cccc(F)c3)c2c1`, for which the melting point is 189 to 191 °C. `OCc1cccnc1Nc1ccccc1` showed a melting point of 180 to 182 °C. As to `CSc1nccc(NC(N)=NCC(F)(F)F)n1`, the melting point is 201 to 202 °C. Turning to `O=C(NC(CO)CO)c1cccc(-c2ccc3c(c2)C(c2cc(Cl)ccc2Cl)CC3)c1` (stereo unspecified), the melting point was found to be 166 °C. Regarding `CC(C)c1cccc(C(C)C)c1NC(=O)NCC1CCc2ccccc21` (stereo unspecified), the melting point was in the range of 183 to 185 °C. Compound `O=c1c(Cl)cn(-c2cc3[nH]c(=O)c(=O)[nH]c3cc2[N+](=O)[O-])cc1Cl` returned a melting point of over 300 °C. For `CCOP(=O)(Cc1ccc(NC(=O)c2cc3c(s2)-c2c(SC)sc(C(=O)Nc4ccc(CP(=O)(OCC)OCC)cc4)c2CC3)cc1)OCC`, the melting point lay in the range of 262 to 263 °C. Regarding `CNCc1cc(C(=O)c2cccs2)cc(C(C)(C)C)c1O`, the melting point lay in the range of 128 to 129 °C. Take `COc1cc2c(cc1OC)C(=O)C(Br)C2` (stereo unspecified): the melting point was 159 to 160 °C. For the compound `O=c1[nH]cnc2c1ncn2[C@@H]1C[C@H](O)[C@@H](O)[C@H]1O` (racemic), the melting point is 198 to 201 °C. Turning to `COC(=O)c1ccc(C2OC23Cc2ccccc2C3=O)cc1` (stereo unspecified), the melting point fell in the range of 160 to 163 °C. On to `CCCCCc1c(-c2ccc3c(Br)c(OCC(=O)O)ccc3c2)oc2ccccc12`, for which the melting point was 159 to 161 °C. As to `COC(CN(C)C(=O)Nc1nnc(C(C)Oc2ccc(Cl)c(Cl)c2)s1)OC` (stereo unspecified), the melting point lay within 124 to 127 °C. Turning to `Cc1cc([N+](=O)[O-])c(Cl)c([N+](=O)[O-])c1S(N)(=O)=O`, the melting point fell in the range of 205 to 215 °C. The value for `COc1cccc(C2(c3cccc(OC)c3)CC2C=CC(=O)NC(C)CCCc2cccnc2)c1` (single isomer, unassigned) was 104 to 106 °C; that for `CCOC(=O)c1cn(C2CC2)c2c(F)c(N3CC(O)C3)c(F)cc2c1=O` was 260 to 270 °C. The compound `COc1ccc2c(c1)c(=O)c(-c1nnnn1C)cn2C` returned a melting point of 280 to 283 °C. Compound `CC(c1oc2ccccc2c(=O)c1-c1cccc(F)c1)n1nc(-c2cccc3[nH]ncc23)c2c(N)ncnc21` (stereo unspecified) returned a melting point of 231 to 233 °C. `CN1CCC(c2c[nH]c3ccc(OC4CCCCC4)cc23)CC1` displayed a melting point of 192 to 194 °C. For `O=C(NC(=O)c1ccccc1Cl)Nc1cc(C(F)(F)F)c(F)cc1Br`, the melting point came to 192 °C. In turn, `CC(C)Nc1cccnc1N1CCN(C(=O)c2ccc(C(=O)N[C@H](CO)C(C)C)cc2)CC1` had a melting point of 82 to 83 °C. The compound `CC(C)(C)n1nnc(N)n1` registered a melting point of 114 to 115 °C.

For the compound `COC(=O)C(O)(c1ccc(Cl)c(Cl)c1)c1ccc(Cl)c(Cl)c1`, the melting point amounted to 69 °C. `O=S1(=O)CCc2nn(-c3ccc(Cl)cc3F)c(Cl)c2C1` registered a melting point of 141 to 143 °C.

`COc1ccc(Nc2cccc3c2C(=O)N(C2CCC(=O)NC2=O)C3=O)c(Oc2ccccc2)c1` (stereo unspecified): the melting point lay within 142 to 144 °C. For `Cc1nn(C)c2nc(-c3ccccc3)cc(N(C)C)c12`, the melting point was 90 to 91 °C. As to `CN1C(=O)NC(Cc2c[nH]c3ccccc23)C1=O` (stereo unspecified), the melting point lay in the range of 207 to 210 °C. The value for `O=C(/C=C/c1c[nH]c2ccccc12)c1ccccc1` was 167 to 170 °C; that for `Cc1ncsc1C(=O)Nc1ccc(-n2nc(C(F)(F)F)c(Cl)c2C2CC2)cc1` was 161 to 164 °C; that for `COc1ccc2cc(-c3cc4c(cc3[N+](=O)[O-])OCO4)ccc2c1` was 165 to 167 °C. `Cn1c(C(F)(F)F)cc(=O)n(-c2ccc3snc(C(=O)NS(N)(=O)=O)c3c2)c1=O` had a melting point of 221 °C. `CCOC(=O)c1c(C(F)(F)F)nc(C(F)(F)Cl)c(C(=O)OC)c1NC(C)(C)C` yielded a melting point of 51.5 to 53 °C. In turn, `CCN(CC)C(=O)Cc1ccc(NC(=O)/C=C/c2cnn(C)c2-c2ccc(F)cc2)cc1` gave a melting point of 175 to 176 °C. Compound `Cc1c(C(=O)N(C)Cc2ccc3c(Br)c(OCC#N)ccc3c2)oc2ccccc12` gave a melting point of 35 to 38 °C. Turning to `Cn1cc(C(=O)O)c(=O)c2cc(F)c(Cl)cc21`, the melting point was 342 °C. The value for `COc1ccc(N2CCN(c3ccc(NC(=O)NN)cc3)CC2)cc1` was 300 °C; that for `O=C(c1ccc(Cl)cc1)C(Cc1ccc(Cl)cc1)c1cccnc1` (stereo unspecified) was 98 to 99 °C.

`COCc1nc(C(=O)OC)c(C(=O)OC)n1Cc1ccc([N+](=O)[O-])cc1`: the melting point is 107 to 110 °C. The value for `COC(=O)CC(=O)/C=C/c1c(-c2ccc(F)cc2)n(C(C)C)c(=O)c2ccccc12` was 123 to 125 °C; that for `COc1ccc(-c2ccc(C#CC(=O)O)s2)cc1C(C)(C)C` was 124 to 126 °C; that for `CC(C)(C)OC(=O)CN1C(=O)C=C(CC(NC(=O)OC(C)(C)C)C(=O)OC(C)(C)C)C1=O` (stereo unspecified) was 88.5 to 89.5 °C. Compound `CN1C[C@H](CN2CCC(O)(c3ccc(Cl)cc3)CC2)C=C2c3cccc4c3c(cn4C)C[C@H]21` displayed a melting point of 101 to 107 °C. The value for `O=C1c2ccccc2OC1Br` (stereo unspecified) was 60 °C. The value for `CCn1cc(C(=O)O)c(=O)c2cnc(N3CCN(Cc4ccc(N)cc4)CC3)nc21` was 198 to 201 °C; that for `CN(C)CCOc1cc(CCCOc2nn(Cc3ccccc3)cc2CC(=O)O)n(Cc2ccc(Cl)cc2Cl)n1` was 78.3 to 80.8 °C.

`COc1ccccc1Sc1c(NS(=O)(=O)c2ccc(C(C)(C)C)cc2)ncnc1OCCOC(=O)Nc1ccccn1` had a melting point of 193 °C. On to `COc1ccnc(CCc2ccnc(N)c2N)c1`, for which the melting point lay in the range of 89 to 91 °C.

`N#Cc1[nH]n(C2CCCC2)c2nc(-c3ccncc3)nc(=O)c1-2`: the melting point was over 300 °C. For `CCOC(=O)c1ccc(N=C(Nc2ccc(C(=O)OCC)cc2)c2ccc(C(C)(C)C)cc2)cc1`, the melting point lay in the range of 212 to 219 °C. For the compound `COc1cc(-c2n[nH]c3c2Cc2ccccc2-3)cc(OC)c1OC`, the melting point is 185 to 187 °C.

Compound `CCc1cc(NCc2ccc(-c3ccccc3-c3nnn[nH]3)cc2)n2ncc(Cl)c2n1` came in with a melting point of 136 to 138 °C.

`COC(=O)c1ccc2c(c1)SCCC2NC(=O)OCc1ccccc1` (stereo unspecified) returned a melting point of 128 to 130 °C. Compound `CCOC(=O)C1CCN(c2ccc(/C=C/C(=O)O)cc2)CC1` yielded a melting point of 212 °C. Consider `O=C(C#Cc1ccc(C(F)(F)F)cc1Cl)Nc1ccc(OCCn2cccn2)cc1`, for which the melting point was 120 to 125 °C.

Compound `CCN1c2ncc(CNc3cccc([N+](=O)[O-])c3)cc2C(=O)N(C)c2ccc(Cl)nc21` returned a melting point of 171 to 172 °C. As for `COc1ccc(CN(Cc2ccc(OC)cc2)c2nccc(-c3ccc(-c4ccc(N(c5ccccc5)c5ccccc5)cc4)cc3)n2)cc1`, the melting point is 95 to 97 °C. The value for `COC(=O)C1Cc2ccc([N+](=O)[O-])cc2CN1` (stereo unspecified) was 133 to 135 °C; that for `CCCCNC(=O)Nc1ccc(OC)cc1C(=O)NCC1CCN(C(c2ccccc2)c2ccccc2)CC1` was 206 to 208 °C. Compound `N#CCCNC(=O)c1n[nH]cc1NC(=O)c1ccc(-c2ccccc2)o1` showed a melting point of 228 to 230 °C. The compound `CS(=O)(=O)c1ccc(-c2sc(N3CCCCC3)nc2-c2ccc(F)cc2)cc1` showed a melting point of 173 to 175 °C.

Take `CCOC(=O)Cc1ccc(NC(=O)C(COc2cccnc2)NS(=O)(=O)c2ccc(Cl)cc2)cc1` (racemic): the melting point lay within 136 to 139 °C. `O=CNC1=NN(c2cccc(Cl)n2)CC1` had a melting point of 190 to 192 °C. The value for `CCCCCc1cc(O)c2c(c1)OC(C)(C)[C@H]1CC=C(C(=O)NCC(O)CNC(=O)c3ccc4c(c3)C(=O)OC43c4ccc(O)cc4Oc4cc(O)ccc43)C[C@H]21` (stereo partly specified) was over 330 °C; that for `Cn1nc2c(N)nc3ncccc3c2c1CC(C)(C)C` was 323 to 326 °C; that for `COC(=O)c1cc2cc3c(cc2[nH]1)OCC(=O)N3` was 188 to 196 °C. Compound `C[C@H](C(=O)NC[C@H](COC(=O)C(C)(C)C)Cc1ccccc1)c1ccc(NS(C)(=O)=O)c(F)c1` showed a melting point of 40 to 42 °C. The value for `CC(=O)Nc1nc(C)c(S(=O)(=O)NN2CCN(C)CC2)s1` was 245 °C; that for `CC(C)c1nc2ccccn2c(=O)c1-c1ccc(NC2CCN(C(=O)OC(C)(C)C)C2)cc1` (stereo unspecified) was 232 to 236 °C. In the case of `Cc1c2c(c(Cc3ccc(C(C)C)cc3)c(C)c1NC(=O)NCCO)OCC2`, the melting point was in the range of 176 to 177 °C.

The compound `CCCc1c(OCC#CCCCC(=O)O)ccc(C(C)=O)c1O` had a melting point of 84 to 86 °C.

Broadly, the melting point is the temperature of the solid-liquid transition.
